In brackets after ≈: the same amount, converted by molar mass.
What was measured:
Plasmodium falciparum [1] = experiment: Antimalarial activity against Plasmodium falciparum Dd2 by 96-well microtitre plate method based scintillation counting analysis; format: functional, organism-based
Plasmodium falciparum [2] = experiment: Antiplasmodial activity against chloroquine sensitive Plasmodium falciparum F-32 Tanzania incubated for 48 hrs; format: functional, organism-based
Plasmodium falciparum [3] = experiment: Antimalarial activity against chloroquine sensitive Plasmodium falciparum D10 incubated for 72 hrs by spectrophotometric analysis; format: functional, organism-based; settings: D10, 72 h
[4] = Cytotoxicity against HMEC-1 cells treated for 72 hrs by MTT assay; format: toxicity, cell-based; settings: human
Plasmodium falciparum [5] = experiment: Antimalarial activity against chloroquine resistant Plasmodium falciparum W2 incubated for 72 hrs by spectrophotometric analysis; format: functional, organism-based; settings: W2, 72 h
Plasmodium berghei [6] = experiment: In vivo antiplasmodial activity against Chloroquine susceptible Plasmodium berghei ANKA infected in CD-1 mouse assessed as decrease in parasitaemia at 30 to 50 mg/kg/day, ip relative to control; format: functional; parameters: scale not given: the % may be the effect or the level left; settings: dose 30-50 mg/kg/day
Plasmodium falciparum [7] = experiment: Antimalarial activity against Plasmodium falciparum Dd2 treated for 48 hrs followed by hypoxanthine addition; format: functional, organism-based; settings: Dd2, 48 h
Plasmodium falciparum [8] = experiment: Antimalarial activity against Plasmodium falciparum W2 incubated for 24 hrs; format: functional, organism-based; settings: for IC50: Plasmodium falciparum, W2, 24 h
HepG2 = experiment: Cytotoxicity against human HepG2 cells incubated for 24 hrs by MTT assay; format: functional
A549 = experiment: Cytotoxicity against human A549 cells incubated for 24 hrs by MTT assay; format: functional
[9] = Cytotoxicity against HMEC-1 cells; format: toxicity, cell-based; settings: human
Plasmodium falciparum [10] = experiment: Antimalarial activity against Plasmodium falciparum D10; format: functional, organism-based
Plasmodium falciparum [11] = experiment: Antimalarial activity against Plasmodium falciparum W2; format: functional, organism-based
Plasmodium berghei [12] = experiment: In vivo antiplasmodial activity against Plasmodium berghei ANKA infected in CD-1 mouse assessed as decrease in parasitaemia at 50 mg/kg, ip measured after 4 days relative to control; format: functional; parameters: scale not given: the % may be the effect or the level left; settings: time 4 day
Plasmodium falciparum [13] = experiment: Antiplasmodial activity against Plasmodium falciparum Dd2 incubated for 48 hrs; format: functional, organism-based; settings: Dd2, 48 h
Plasmodium falciparum [14] = experiment: Antiplasmodial activity against Plasmodium falciparum 3D7 incubated for 48 hrs; format: functional, organism-based; settings: 3D7, 48 h
Plasmodium falciparum [15] = experiment: Antimalarial activity against Plasmodium falciparum K14 incubated for 42 hrs in presence of 3H-hypoxanthine by top-count microbeta counter analysis; format: functional, organism-based
Plasmodium falciparum [16] = experiment: Antiplasmodial activity against Chloroquine resistant Plasmodium falciparum FcB1 incubated for 48 hrs by SYBR green I based fluorescence assay; format: functional, organism-based; settings: FcB1, 48 h
Plasmodium falciparum [17] = experiment: Antimalarial activity against Plasmodium falciparum 3D7 infected in human erythrocytes; format: functional, organism-based; settings: 3D7, Erythrocyte
Plasmodium falciparum [18] = experiment: Antiplasmodial activity against Chloroquine resistant Plasmodium falciparum FcB1 incubated for 48 hrs; format: functional, organism-based; settings: FcB1, 48 h
Plasmodium falciparum [19] = experiment: Antiplasmodial activity against Plasmodium falciparum K1; format: functional, organism-based
Plasmodium falciparum [20] = experiment: Antimalarial activity against Plasmodium falciparum K1 by 96-well microtitre plate method based scintillation counting analysis; format: functional, organism-based
Plasmodium falciparum [21] = experiment: Antimalarial activity against Plasmodium falciparum D6; format: functional, organism-based
Plasmodium berghei [22] = experiment: Antimalarial activity against Plasmodium berghei; format: functional, organism-based
Plasmodium falciparum [23] = experiment: Antimalarial activity against Plasmodium falciparum TM91C235; format: functional, organism-based

## Cc1cc2c(c(C3=C(O)C(=O)c4c(O)ccc(O)c4C3=O)c1)C(=O)c1c(O)c3c(c(O)c1C2=O)C=CC(C)(C)O3
Plasmodium falciparum [1]
  IC50: 1.57 µg/mL (≈ 2.9 µM)

## O=C(Cn1cc(COC2=CC(=O)c3ccccc3C2=O)nn1)c1ccc(-c2ccccc2)cc1
Plasmodium falciparum [2]
  IC50: 1600 nM

## CCC1=C(NC(=O)C(C)(C)C)C(=O)C2=C(NCCS2(=O)=O)C1=O
Plasmodium falciparum [3]
  IC50: 390 nM
[4]
  IC50 at 72 h: 1600 nM
Plasmodium falciparum [5]
  IC50: 580 nM

## CC1=C(Cc2ccc([N+](=O)[O-])cc2)C(=O)c2ccccc2C1=O
Plasmodium berghei [6]
  Activity: 20.7%
Plasmodium falciparum [7]
  IC50: 46 nM

## CC1(C)CCC2=C(O1)c1ccccc1C(=O)C2=O [LAPACHONE]
Plasmodium falciparum [8]
  IC50: 20500 nM
HepG2
  CC50: 2090 nM
A549
  CC50: 2090 nM

## CC1=C(Cc2ccc(C(F)(F)F)cc2)C(=O)c2ccccc2C1=O
Plasmodium berghei [6]
  Activity: 20.7%

## COC1=C(Cc2ccc(Cl)cc2)C(=O)C2=C(NCCS2(=O)=O)C1=O
[9]
  IC50: 8510 nM
Plasmodium falciparum [10]
  IC50: 1900 nM
Plasmodium falciparum [11]
  IC50: 1630 nM

## CC1=C(Cc2ccc(F)cc2)C(=O)c2ccccc2C1=O
Plasmodium berghei [6]
  Activity: 20.7%
Plasmodium falciparum [7]
  IC50: 46 nM

## CC1=C(Cc2ccc(Br)cc2)C(=O)c2ccccc2C1=O
Plasmodium berghei [12]
  Activity: 35.8%
Plasmodium falciparum [7]
  IC50: 46 nM

## CCCC/C=C/C1=C(O)C(=O)c2ccccc2C1=O
Plasmodium falciparum [13]
  IC50: 220 nM
Plasmodium falciparum [14]
  IC50: 2400 nM

## O=C1c2ccccc2C(=O)c2cc(C3C(Oc4ccc5ccccc5c4)C(=O)N3c3cccc4ccccc34)ccc21 (configuration not stated)
Plasmodium falciparum [15]
  IC50: 39000 nM

## CN(C)c1ccc(N2C(=O)C(Oc3ccccc3)C2c2ccc3c(c2)C(=O)c2ccccc2C3=O)cc1 (configuration not stated)
Plasmodium falciparum [15]
  IC50: 9000 nM

## CN(C)c1ccc(N2C(=O)C(Oc3ccc(Cl)cc3Cl)C2c2ccc3c(c2)C(=O)c2ccccc2C3=O)cc1 (configuration not stated)
Plasmodium falciparum [15]
  IC50: 48000 nM

## Cc1cc2c(o1)C(=O)c1ccccc1C2=O
Plasmodium falciparum [13]
  IC50: 1200 nM
Plasmodium falciparum [14]
  IC50: 1500 nM

## COc1ccc(N2C(=O)C(Oc3ccc(Cl)cc3Cl)C2c2ccc3c(c2)C(=O)c2ccccc2C3=O)cc1 (configuration not stated)
Plasmodium falciparum [15]
  IC50: 47000 nM

## COc1ccc2c(c1)C1=C(C(=O)C2=O)C(C)(C)C(C)O1 (configuration not stated)
Plasmodium falciparum [16]
  IC50: 580 nM

## COc1ccc(CC2=C(O)C(=O)c3ccccc3C2=O)cc1
Plasmodium falciparum [17]
  IC50: 16000 nM

## O=C1C2=C(C(=O)c3ccccc31)[C@H]1OCc3cc4c(cc3[C@H]1CO2)OCO4
Plasmodium falciparum [18]
  IC50: 280 nM

## O=C1c2ccccc2C(=O)c2cc(C3C(Oc4ccc(Cl)cc4)C(=O)N3c3cccc4ccccc34)ccc21 (configuration not stated)
Plasmodium falciparum [15]
  IC50: 45000 nM

## COc1cc2c(cc1O)[C@H]1COC3=C(C(=O)c4ccccc4C3=O)[C@H]1OC2
Plasmodium falciparum [18]
  IC50: 30 nM

## O=C(O)c1ccc2c(n1)C(=O)C1=C(C2=O)S(=O)(=O)CCN1 [ACIDIATHIAZONE A]
Plasmodium falciparum [19]
  IC50: 3300 nM

## COc1cc(O)c(-c2c(C)cc(O)c3c2C(=O)c2ccc([C@H]4c5cccc(O)c5C(=O)c5c(O)cc(C)c(-c6c(O)cc(OC)c(C(C)=O)c6O)c54)c(O)c2C3=O)c(O)c1C(C)=O (stereo in doubt; 12)
Plasmodium falciparum [20]
  IC50: 230 nM

## CC(C)=CCC1=C(O)C(=O)c2c(O)ccc(O)c2C1=O
Plasmodium falciparum [1]
  IC50: 0.8 µg/mL (≈ 2.92 µM)

## COc1ccc(-n2cc(COC3=CC(=O)c4ccccc4C3=O)nn2)cc1F
Plasmodium falciparum [2]
  IC50: 800 nM

## COc1cc2c(cc1O)CO[C@@H]1C3=C(OC[C@H]21)C(=O)c1ccccc1C3=O
Plasmodium falciparum [18]
  IC50: 40 nM

## CC1(C)OC2=C(CC1I)C(=O)C(=O)c1ccccc12 (configuration not stated)
Plasmodium falciparum [8]
  IC50: 15800 nM

## COC1=C(Cc2ccccc2)C(=O)C2=C(NCCS2(=O)=O)C1=O
Plasmodium falciparum [3]
  IC50: 600 nM
[4]
  IC50 at 72 h: 17600 nM
Plasmodium falciparum [5]
  IC50: 700 nM

## C/C=C/C1=C(O)C(=O)c2ccccc2C1=O
Plasmodium falciparum [13]
  IC50: 1600 nM
Plasmodium falciparum [14]
  IC50: 1200 nM

## COc1ccc(N2C(=O)C(Oc3ccccc3)C2c2ccc3c(c2)C(=O)c2ccccc2C3=O)cc1 (configuration not stated)
Plasmodium falciparum [15]
  IC50: 27000 nM

## COC1=C(Cc2ccc(OC(F)(F)F)cc2)C(=O)C2=C(NCCS2(=O)=O)C1=O
[9]
  IC50: 3590 nM
Plasmodium falciparum [10]
  IC50: 810 nM
Plasmodium falciparum [11]
  IC50: 1120 nM

## CCC1=C(NC(=O)C(C)(C)C)C(=O)C2=C(C1=O)S(=O)(=O)CCN2
Plasmodium falciparum [3]
  IC50: 6150 nM
[4]
  IC50 at 72 h: > 100000 nM
Plasmodium falciparum [5]
  IC50: 6310 nM

## COc1cc(O)c(-c2c(C)cc(O)c3c2C(=O)c2ccc([C@H]4c5cccc(O)c5C(=O)c5c(O)cc(C)c(-c6c(O)cc(OC)c(C(C)=O)c6O)c54)c(O)c2C3=O)c(O)c1C(C)=O (stereo in doubt; 11)
Plasmodium falciparum [20]; Plasmodium falciparum, K1
  IC50: 140 nM

## O=C1C=C(OCc2cn(/C=C/c3ccc(C(F)(F)F)cc3)nn2)C(=O)c2ccccc21
Plasmodium falciparum [2]
  IC50: 3300 nM

## O=C1c2ccccc2C(=O)c2cc(C3C(Oc4ccccc4)C(=O)N3c3cccc4ccccc34)ccc21 (configuration not stated)
Plasmodium falciparum [15]
  IC50: 41000 nM

## CC1=C(Cc2ccc(C(C)(C)C)cc2)C(=O)c2ccccc2C1=O
Plasmodium berghei [6]
  Activity: 20.7%
Plasmodium falciparum [7]
  IC50: 54 nM

## CCCCCC[C@H](C)CC1=C(O)C(=O)c2ccccc2C1=O
Plasmodium falciparum [21]
  IC50: 63 nM
Plasmodium falciparum [11]
  IC50: 214 nM
Plasmodium berghei [22]
  IC50: 96.2 nM
Plasmodium falciparum [23]
  IC50: 348 nM

## COc1cc(OC)c(-c2c(C)cc(O)c3c2C(=O)c2cccc(O)c2C3=O)c(O)c1C(C)=O
Plasmodium falciparum [20]; Plasmodium falciparum, K1
  IC50: 0.751 µg/mL

## CC(C)(C)CC1=C(O)C(=O)c2ccccc2C1=O
Plasmodium falciparum [17]
  IC50: 15200 nM

## CCC1=C(OC)C(=O)C2=C(C1=O)S(=O)(=O)CCN2
Plasmodium falciparum [3]
  IC50: 2450 nM
[4]
  IC50 at 72 h: > 100000 nM
Plasmodium falciparum [5]
  IC50: 2370 nM

## COc1ccc(N2C(=O)C(Oc3ccc(Cl)cc3)C2c2ccc3c(c2)C(=O)c2ccccc2C3=O)cc1 (configuration not stated)
Plasmodium falciparum [15]
  IC50: 38000 nM

## COc1cc2c(cc1O)[C@H]1COC3=C(C(=O)c4ccccc4C3=O)[C@H]1O2
Plasmodium falciparum [18]
  IC50: ≥ 10000 nM

## Cc1ccc2c(c1)C(=O)c1c(O)ccc(O)c1C2=O
Plasmodium falciparum [1]
  IC50: 1.63 µg/mL (≈ 6.41 µM)

## C[C@@H](CCCCCC(F)(F)F)CC1=C(O)C(=O)c2ccccc2C1=O
Plasmodium falciparum [21]
  IC50: 5 nM
Plasmodium falciparum [11]
  IC50: 65 nM
Plasmodium berghei [22]
  IC50: 17 nM
Plasmodium falciparum [23]
  IC50: 84 nM

## CCc1cc2c(o1)C(=O)c1ccccc1C2=O
Plasmodium falciparum [13]
  IC50: 1800 nM
Plasmodium falciparum [14]
  IC50: 400 nM

## CC(=O)OC1=C(CC=C(C)C)C(=O)c2ccccc2C1=O
Plasmodium falciparum [8]
  IC50: 2300 nM
Plasmodium falciparum [8]; time 24 hrs
  IC100: 4.7 µM

## CN(C)c1ccc(N2C(=O)C(Oc3ccc(Cl)cc3)C2c2ccc3c(c2)C(=O)c2ccccc2C3=O)cc1 (configuration not stated)
Plasmodium falciparum [15]
  IC50: 21000 nM

## O=C(O)c1ccc2c(n1)C(=O)C1=C(C2=O)S(=O)(=O)C=CN1
Plasmodium falciparum [19]
  IC50: 600 nM

## O=C1C=C(OCc2cn(-c3ccccc3)nn2)C(=O)c2ccccc21
Plasmodium falciparum [2]
  IC50: 1200 nM

## O=C(O)c1cc2c(s1)C(=O)C1=C(C2=O)S(=O)(=O)C=CN1
Plasmodium falciparum [19]
  IC50: 35 nM

## CC1=C(Cc2ccc(O)cc2)C(=O)c2ccccc2C1=O
Plasmodium berghei [6]
  Activity: 20.7%
Plasmodium falciparum [7]
  IC50: 55 nM

## O=C1C(O)=C(Cc2ccc([N+](=O)[O-])cc2)C(=O)c2ccccc21
Plasmodium falciparum [17]
  IC50: 13700 nM

## CC1(C)OC2=C(CC1I)C(=O)c1ccccc1C2=O (configuration not stated)
Plasmodium falciparum [8]
  IC50: 19500 nM

Source: ChEMBL document CHEMBL5113376, “Antimalarial application of quinones: A recent update” (Eur J Med Chem, 2021)
